Measured values: ChEMBL document CHEMBL4049399, “Novel pyrrolopyrimidines as Mps1/TTK kinase inhibitors for breast cancer” (Bioorg Med Chem, 2017)
Values after ≈ are worked out from the molar mass of the structure shown. Active and inactive are the calls of the source. The rule behind the calls is not given here.

Key:
MDA-MB-231 = assay: Antiproliferative activity against human MDA-MB-231 cells assessed as reduction in cell viability after 5 to 7 days by CellTiter 96 aqueous solution assay; assay type: functional, cell-based
[1] = Systemic clearance in ICR mouse at 20 mg/kg, iv by LC-MS/MS analysis; assay type: ADME, organism-based; settings: in vivo
[2] = target: T1, Dual specificity protein kinase TTK (Homo sapiens) (UniProt P33981); settings: 1 uM
T1 sequence (whole entry): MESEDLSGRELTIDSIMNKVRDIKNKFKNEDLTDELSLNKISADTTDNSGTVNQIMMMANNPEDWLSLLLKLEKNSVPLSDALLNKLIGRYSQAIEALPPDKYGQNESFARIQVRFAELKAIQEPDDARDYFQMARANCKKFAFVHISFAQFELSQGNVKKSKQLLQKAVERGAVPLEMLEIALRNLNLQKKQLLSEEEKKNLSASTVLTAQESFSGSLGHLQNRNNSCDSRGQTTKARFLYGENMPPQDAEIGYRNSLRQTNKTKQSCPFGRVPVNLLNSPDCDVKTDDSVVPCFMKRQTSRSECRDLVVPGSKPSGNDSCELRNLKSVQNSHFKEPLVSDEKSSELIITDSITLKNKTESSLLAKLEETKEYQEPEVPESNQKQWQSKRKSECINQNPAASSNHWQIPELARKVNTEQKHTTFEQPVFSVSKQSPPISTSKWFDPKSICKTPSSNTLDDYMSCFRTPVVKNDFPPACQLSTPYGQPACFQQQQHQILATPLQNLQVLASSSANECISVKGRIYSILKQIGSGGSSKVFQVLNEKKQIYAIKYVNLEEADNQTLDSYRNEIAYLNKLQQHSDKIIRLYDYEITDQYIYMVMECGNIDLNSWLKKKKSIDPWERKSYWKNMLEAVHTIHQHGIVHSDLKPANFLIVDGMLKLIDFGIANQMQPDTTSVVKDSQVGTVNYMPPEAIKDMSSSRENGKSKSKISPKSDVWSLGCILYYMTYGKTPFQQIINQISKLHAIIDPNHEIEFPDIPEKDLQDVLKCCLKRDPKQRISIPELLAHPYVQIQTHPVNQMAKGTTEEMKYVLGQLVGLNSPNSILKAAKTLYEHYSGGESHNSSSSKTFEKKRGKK

[3] = target: T1, Dual specificity protein kinase TTK (Homo sapiens); assay: Inhibition of Mps1/TTK in human CAL51 cells assessed as reduction in centriole assembly during S-phase by measuring increase in BrdU positive cells with two centrioles incubated for 24 hrs followed by BrdU incorporation during last 4 hrs of incubation; assay type: cell-based
AU565 = assay: Antiproliferative activity against human AU565 cells assessed as reduction in cell viability after 5 to 7 days by CellTiter 96 aqueous solution assay; assay type: functional, cell-based
[4] = target: Phosphatidylinositol 4,5-bisphosphate 3-kinase catalytic subunit beta isoform (Homo sapiens, UniProt P42338); assay: Inhibition of PI3Kbeta (unknown origin)
Sequence of Phosphatidylinositol 4,5-bisphosphate 3-kinase catalytic subunit beta isoform (P42338 whole entry, canonical isoform): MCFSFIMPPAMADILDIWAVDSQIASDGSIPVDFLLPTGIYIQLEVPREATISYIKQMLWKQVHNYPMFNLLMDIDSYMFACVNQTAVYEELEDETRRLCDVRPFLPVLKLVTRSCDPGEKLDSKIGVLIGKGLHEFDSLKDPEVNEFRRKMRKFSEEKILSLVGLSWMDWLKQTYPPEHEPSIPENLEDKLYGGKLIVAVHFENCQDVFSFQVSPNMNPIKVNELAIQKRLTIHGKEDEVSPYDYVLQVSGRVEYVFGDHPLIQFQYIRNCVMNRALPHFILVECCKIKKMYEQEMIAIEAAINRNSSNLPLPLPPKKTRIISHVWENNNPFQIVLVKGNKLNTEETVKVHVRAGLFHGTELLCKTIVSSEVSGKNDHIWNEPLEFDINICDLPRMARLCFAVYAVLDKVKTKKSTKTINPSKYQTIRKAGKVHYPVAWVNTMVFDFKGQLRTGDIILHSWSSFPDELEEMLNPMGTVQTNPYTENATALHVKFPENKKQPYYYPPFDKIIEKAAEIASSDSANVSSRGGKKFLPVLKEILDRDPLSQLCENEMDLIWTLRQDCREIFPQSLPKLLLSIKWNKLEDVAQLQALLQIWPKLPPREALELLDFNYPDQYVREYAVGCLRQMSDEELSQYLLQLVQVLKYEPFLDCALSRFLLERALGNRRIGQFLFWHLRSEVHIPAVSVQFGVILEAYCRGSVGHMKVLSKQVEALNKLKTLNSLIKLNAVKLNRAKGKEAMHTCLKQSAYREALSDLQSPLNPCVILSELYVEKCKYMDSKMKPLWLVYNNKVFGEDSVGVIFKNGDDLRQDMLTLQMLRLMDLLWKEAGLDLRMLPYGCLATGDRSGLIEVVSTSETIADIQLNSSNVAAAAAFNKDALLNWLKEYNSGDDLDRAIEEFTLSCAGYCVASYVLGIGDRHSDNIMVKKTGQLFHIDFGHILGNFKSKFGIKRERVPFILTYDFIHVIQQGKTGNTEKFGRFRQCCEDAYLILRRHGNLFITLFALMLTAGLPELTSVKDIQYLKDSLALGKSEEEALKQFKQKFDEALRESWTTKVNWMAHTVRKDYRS

CAMA-1 = assay: Antiproliferative activity against human CAMA1 cells assessed as reduction in cell viability after 5 to 7 days by CellTiter 96 aqueous solution assay; assay type: functional, cell-based
[5] = target: T1, Dual specificity protein kinase TTK (Homo sapiens); settings: 1 uM; remark: listed apart in the source
[6] = target: Tyrosine-protein kinase SYK (Homo sapiens, UniProt P43405); assay: Inhibition of human SYK using poly[Glu:Tyr] (4:1) as substrate in presence of [gamma-32P]ATP
CAL-51 [7] = assay: Cytotoxicity against human CAL51 cells assessed as reduction in cell viability at 25 uM after 24 hrs by BrdU incorporation assay relative to control; assay type: functional
[8] = Solubility of the compound in 10:5:10:75 DMSO/Tween80/PEG400/saline by absorption spectrometric method; assay type: physicochemical
Hs-578T = assay: Antiproliferative activity against human Hs578T cells assessed as reduction in cell viability after 5 to 7 days by CellTiter 96 aqueous solution assay; assay type: functional, cell-based
Mus musculus [9] = assay: Toxicity in athymic nude mouse assessed as body weight at 10 mg/kg, ip measured immediately (reference value: 20 to 26 g); assay type: organism-based; settings: in vivo
T47D = assay: Antiproliferative activity against human T47D cells assessed as reduction in cell viability after 5 to 7 days by CellTiter 96 aqueous solution assay; assay type: functional, cell-based
[10] = target: T1, Dual specificity protein kinase TTK (Homo sapiens); assay: Inhibition of Mps1/TTK in human CAL51 cells assessed as spindle assembly checkpoint arrest in response to nocodazole by measuring decrease in cyclin B level up to 10 uM by immunoblotting method; assay type: cell-based
[11] = target: Non-receptor tyrosine-protein kinase TYK2 (Homo sapiens, UniProt P29597); assay: Inhibition of human TYK2 using KKSRGDYMTMQIG as substrate in presence of [gamma-32P]ATP
Sequence of Non-receptor tyrosine-protein kinase TYK2 (P29597 whole entry): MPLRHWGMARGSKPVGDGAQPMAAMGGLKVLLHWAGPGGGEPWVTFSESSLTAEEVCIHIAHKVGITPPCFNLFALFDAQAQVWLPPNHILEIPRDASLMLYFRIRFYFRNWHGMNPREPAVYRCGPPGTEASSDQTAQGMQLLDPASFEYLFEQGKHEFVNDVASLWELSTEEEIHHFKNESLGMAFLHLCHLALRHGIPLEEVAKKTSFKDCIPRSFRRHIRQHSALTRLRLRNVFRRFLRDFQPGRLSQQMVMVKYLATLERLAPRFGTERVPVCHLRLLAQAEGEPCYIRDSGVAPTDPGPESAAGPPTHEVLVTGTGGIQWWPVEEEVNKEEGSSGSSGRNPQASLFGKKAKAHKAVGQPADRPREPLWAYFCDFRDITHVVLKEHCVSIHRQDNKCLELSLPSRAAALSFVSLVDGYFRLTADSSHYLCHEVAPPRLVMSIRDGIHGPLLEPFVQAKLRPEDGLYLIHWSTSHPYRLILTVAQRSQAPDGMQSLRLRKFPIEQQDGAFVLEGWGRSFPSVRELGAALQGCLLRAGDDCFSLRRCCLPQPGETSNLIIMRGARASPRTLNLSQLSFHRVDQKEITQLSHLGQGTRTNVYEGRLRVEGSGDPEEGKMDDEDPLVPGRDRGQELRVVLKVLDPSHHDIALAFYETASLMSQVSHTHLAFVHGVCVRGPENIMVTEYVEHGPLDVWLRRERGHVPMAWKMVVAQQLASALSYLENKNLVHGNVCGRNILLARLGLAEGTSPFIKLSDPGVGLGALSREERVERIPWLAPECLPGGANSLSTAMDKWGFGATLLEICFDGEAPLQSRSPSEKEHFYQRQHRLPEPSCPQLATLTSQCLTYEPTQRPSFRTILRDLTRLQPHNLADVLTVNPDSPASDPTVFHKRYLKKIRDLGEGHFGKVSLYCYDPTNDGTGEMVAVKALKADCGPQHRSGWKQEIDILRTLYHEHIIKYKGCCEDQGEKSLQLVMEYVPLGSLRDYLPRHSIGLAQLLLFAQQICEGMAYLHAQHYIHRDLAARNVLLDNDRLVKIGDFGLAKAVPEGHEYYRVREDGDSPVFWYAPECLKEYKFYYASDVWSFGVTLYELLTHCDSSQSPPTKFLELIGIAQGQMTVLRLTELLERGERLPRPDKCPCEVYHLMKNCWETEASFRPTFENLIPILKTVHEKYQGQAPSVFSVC

MCF7 = assay: Antiproliferative activity against human MCF7 cells assessed as reduction in cell viability after 5 to 7 days by CellTiter 96 aqueous solution assay; assay type: functional, cell-based
[12] = target: T1, Dual specificity protein kinase TTK (Homo sapiens); assay: Inhibition of Mps1/TTK in human CAL51 cells assessed as reduction in centrosome amplification during S-phase by measuring decrease in cells with more than four centrioles incubated for 24 hrs followed by BrdU incorporation during last 4 hrs of incubation; assay type: cell-based
BT-20 = assay: Antiproliferative activity against human BT20 cells assessed as reduction in cell viability after 5 to 7 days by CellTiter 96 aqueous solution assay; assay type: functional, cell-based
[13] = Solubility of the compound in DMSO by absorption spectrometric method; assay type: physicochemical
[14] = Elimination half-life in ICR mouse at 20 mg/kg, iv by LC-MS/MS analysis; assay type: ADME, organism-based; settings: in vivo, read-out: beta t1/2 (converted)
HCC1937 = assay: Antiproliferative activity against human HCC1937 cells assessed as reduction in cell viability after 5 to 7 days by CellTiter 96 aqueous solution assay; assay type: functional, cell-based
SK-BR-3 = assay: Antiproliferative activity against human SK-BR-3 cells assessed as reduction in cell viability after 5 to 7 days by CellTiter 96 aqueous solution assay; assay type: functional, cell-based
[15] = AUC in ICR mouse at 50 mg/kg, ip by LC-MS/MS analysis; assay type: ADME, organism-based; settings: in vivo
CAL-51 [16] = assay: Antiproliferative activity against human CAL51 cells assessed as reduction in cell viability after 5 to 7 days by CellTiter 96 aqueous solution assay; assay type: functional, cell-based
CAL-51 [17] = assay: Antitumor activity against human CAL51 cells xenografted in athymic nude mouse assessed as reduction in tumor weight at 10 mg/kg, ip administered once daily measured after 7 weeks; assay type: functional, organism-based
Mus musculus [18] = assay: Toxicity in athymic nude mouse assessed as body weight at 10 mg/kg, ip administered once daily for 7 weeks measured at post last dose (reference value: 20 to 26 g); assay type: organism-based; settings: in vivo, 1176 h
CAL-51 [19] = assay: Antitumor activity against human CAL51 cells xenografted in athymic nude mouse assessed as reduction in tumor growth at 10 mg/kg, ip administered once daily measured after 3 to 7 weeks; assay type: functional, organism-based
BT-474 = assay: Antiproliferative activity against human BT474 cells assessed as reduction in cell viability after 5 to 7 days by CellTiter 96 aqueous solution assay; assay type: functional, cell-based
MDA-MB-436 = assay: Antiproliferative activity against human MDA-MB-436 cells assessed as reduction in cell viability after 5 to 7 days by CellTiter 96 aqueous solution assay; assay type: functional, cell-based
BT-549 = assay: Antiproliferative activity against human BT549 cells assessed as reduction in cell viability after 5 to 7 days by CellTiter 96 aqueous solution assay; assay type: functional, cell-based
MDA-MB-453 = assay: Antiproliferative activity against human MDA-MB-453 cells assessed as reduction in cell viability after 5 to 7 days by CellTiter 96 aqueous solution assay; assay type: functional, cell-based
MDA-MB-468 = assay: Antiproliferative activity against human MDA-MB-468 cells assessed as reduction in cell viability after 5 to 7 days by CellTiter 96 aqueous solution assay; assay type: functional, cell-based
[20] = target: T1, Dual specificity protein kinase TTK (Homo sapiens); assay: Inhibition of Mps1/TTK in human MDA-MB-468 cells assessed as cell cycle arrest at mitotic stage by measuring decrease in spindle assembly checkpoint arrest in response to nocodazole by DAPI/Hoechst staining based assay

| SMILES | IC50 (MDA-MB-231) [µM] | inhibition [3] | IC50 (AU565) [µM] | IC50 (CAMA-1) [nM] | IC50 (Hs-578T) [µM] | IC50 (T47D) [µM] | inhibition [10] | IC50 (MCF7) [nM] | inhibition [12] | IC50 (BT-20) [nM] | IC50 (HCC1937) [nM] | IC50 (SK-BR-3) [nM] | IC50 (CAL-51 [16]) [nM] | IC50 (BT-474) [nM] | IC50 (MDA-MB-436) [nM] | IC50 (BT-549) [nM] | IC50 (MDA-MB-453) [µM] | IC50 (MDA-MB-468) [nM] | also measured |
| --- | --- | --- | --- | --- | --- | --- | --- | --- | --- | --- | --- | --- | --- | --- | --- | --- | --- | --- | --- |
| COc1cc(N2CCOCC2)ccc1Nc1nc(NC2CCCCC2)c2cc[nH]c2n1 | > 10 | Dose-dependent effect | 0.95 | 600 | > 10 | > 10 | Active | > 10000 | Dose-dependent effect | 370 | 1020 | 400 | 550 |  |  |  |  |  | clearance [1]: 292 mL/min/kg; inhibition [2]: Active; IC50 [4]: 40.6 µM; inhibition [5]: Active; IC50 [6]: 153 µM; Activity (CAL-51 [7]): 70%; solubility [8]: 5000 µg/mL (≈ 11.8 mM); Activity (Mus musculus [9]): 24 g; IC50 [11]: 132 µM; solubility [13]: 53.4 mg/mL (≈ 126 mM); half-life [14]: 137 min; AUC [15]: 8460 ng·h/mL; Activity (CAL-51 [17]): Active; Activity (Mus musculus [18]): 26 g; TGI (CAL-51 [19]): Active |
| COc1cc(N2CCC(O)CC2)ccc1Nc1cc(Nc2ccccc2S(=O)(=O)C(C)C)c2cc[nH]c2n1 | > 10 |  | > 10 | > 10000 | > 10 | > 10 |  | > 10000 |  | > 10000 | > 10000 | > 10000 | 2920 | > 10000 | > 10000 | 1730 | > 10 | 1850 |  |
| COc1ccccc1Nc1nc(Nc2ccccc2S(=O)(=O)C(C)C)c2cc[nH]c2n1 | 0.4 |  | > 10 | 840 | > 10 | 0.33 |  | 350 |  | 60 | 840 | 750 | 1260 | 470 | 5230 | 2190 | > 10 | 1570 |  |
| COc1cc(N2CCOCC2)ccc1Nc1nc(Nc2ccccc2S(=O)(=O)C(C)C)c2cc[nH]c2n1 | > 10 |  | > 10 | 650 | > 10 | > 10 |  | 300 |  | 1710 | 1100 | 470 | 300 | 290 | 1230 | 1300 | > 10 | 320 |  |
| COc1cc(N2CCC(O)CC2)ccc1Nc1nc(Nc2ccccc2S(=O)(=O)C(C)C)c2cc[nH]c2n1 | > 10 | Dose-dependent effect | > 10 | 360 | > 10 | > 10 | Active | 440 | Dose-dependent effect | 350 | 730 | > 10000 | 230 | > 10000 | 900 | 810 | 0.82 | 190 | inhibition [20]: Dose-dependent effect |
